Laboratory results published in patent US20060276534A1, “Methods of decreasing calcification” (Amgen Inc., priority 2005, published 2006).
One block for each molecule: values may come before it.

What was measured:
5/6 Nx rats [1] = assay: Blood chemistries in 5/6 nephrectomy rat model of CKD (Example 1); format: in vivo; details: 14 days
From the text: Male Wistar rats weighing 250 g were purchased from the Animal Breeding Facility of the University of Cordoba (Spain). Rats were housed with a 12 hr/12 hr light/dark cycle and given ad libitum access to normal diet (calcium=0.9%, phosphorus=0.6%). The experimental protocols were reviewed and approved by the Ethics Committee for Animal Research of the Universidad de Cordoba (Spain), and all animals received humane care in compliance with the Principles of Laboratory Animal Care, formulated by the National Society for Medical Research and the Guide for the Care and Use of Laboratory Animals prepared by the National Academy of Science.
(§1) The rodent model of CKD used in these studies was induced by 5/6 nephrectomy (5/6 Nx), a two-step procedure that reduces the original functional renal mass by five-sixths (5/6). In the first step, animals were anesthetized using xylazine (5 mg/kg, ip) and ketamine (80 mg/kg, ip), a 5-8 mm incision was made on the left medio-lateral surface of the abdomen, and the left kidney was exposed. The left renal artery was visualized and 2 of the 3 branches tightly ligated, after which the kidney was inspected for infarct and returned to an anatomically neutral position within the peritoneal cavity. The abdominal wall and skin incisions were closed with suture, and the rat placed back into its home cage. After 1 week of recovery, the animal was reanesthetised and a 5-8 mm incision was made on the right medio-lateral surface of the abdomen. The right kidney was exposed and unencapsulated, the renal pedicle clamped and ligated, and the kidney was removed. The ligated pedicle was returned to a neutral anatomical position and the abdomen and skin incisions closed with suture materials. The animal was allowed to recover in its home cage. Sham-operated animals underwent the same procedures without renal manipulation.
(§2) After the second surgery, the diet was changed to one with decreased calcium (0.6%) and increased phosphorus (0.9%) content. The rats were randomized (based on the normal distribution of baseline body weights) into 6 experimental groups: sham-operated (n=13) (used as a control), 5/6 Nx+vehicle (saline) (n=10), 5/6 Nx+calcitriol 80 ng/kg (Calcijex, Abbot) ip every other day (n=10), 5/6 Nx+Compound A 1.5 mg/kg per day sc (n=10) (Amgen, Thousand Oaks, Calif. USA), 5/6 Nx+Compound A 3 mg/kg per day sc (n=10), or 5/6 Nx+combination calcitriol 80 ng/kg and Compound A 1.5 mg/kg (n=10) dosed as above. Treatments were maintained for 14 days. The rats were sacrificed by aortic puncture and exsanguination under general anesthesia (ip sodium thiopenthal) 24 hours after the last dose of drug.
Blood for chemistry analyses was collected from the abdominal aorta at the end of the treatment period. Blood for measurements of ionized calcium levels was collected in heparinized syringes and immediately analyzed using a Ciba-Corning 634 ISE Ca++/pH Analyzer (Ciba-Corning Essex, England). Afterwards, plasma was separated by centrifugation and stored at −70° C. until assayed. PTH levels were quantified according to the vendor's instructions using a rat PTH(1-34) immunoradiometric assay kit (Immunotopics, San Clemente, CA). Serum creatinine, phosphorous, and total calcium were measured by spectrophotometry (Sigma Diagnostics, St. Louis, Mo., USA).
Values were expressed as the mean±standard error (SE). The difference between means for two different groups was determined by t test; the difference between means for three or more groups was assessed by ANOVA. P<0.05 was considered significant.

5/6 Nx rats [2] = assay: Ex vivo assessment of vascular calcification: aortic calcium and phosphorus content, von Kossa staining (Example 1); format: in vivo, rat; details: 14 days; for Mineral deposits in the aorta (von Kossa staining): single agents
Protocol: as §1, §2
Following sacrifice, the abdominal aortas were dissected and divided in two parts. One part was fixated in 10% buffered formalin and subsequently sectioned and stained for mineralization by the von Kossa method. The other was dimineralized in 10% formic acid, and the arterial tissue calcium and phosphorous content measured in the supernatant according to the method described by Price et al Arterioscler Thromb Vasc Biol 20:317-27, 2000.

5/6 Nx rats [3] = assay: Vascular calcification regression in 5/6 Nx rats on high phosphorus diet with calcitriol; format: in vivo, rat
Protocol: Animals were 5/6 Nx as previously described and placed on a high phosphorus diet (0.6% Ca; 1.2% P) for 14 days. Animals were divided into four groups (A,B,C and D n=4-5 animals per group), one group (A) received vehicle (saline 0.2 ml i.p.) while the remaining three groups (B,C and D) received calcitriol (80 ng/kg every other day i.p.) for the course of the study (28 days). On day 14 two groups (C and D) were converted to normal diet (Ca 0.9%; P 0.6%) and group C was administered Compound A at 3 mg/kg daily p.o.), while group D received vehicle (0.5 ml of 10% captisol in water p.o.) daily. The remaining groups (A and B) were kept on the high phosphorus diet and administered either calcitriol or vehicle for the course of the study (28 days). On day 28 all animals were sacrificed (CO2) and the aortas removed for determining aortic P and Ca content (mg/g of tissue) as previously described

5/6 Nx rats [4] = assay: Soft tissue mineralization by Von Kossa staining in 5/6 Nx rats (Example 4); format: in vivo, rat; details: 5/6 Nx rats, 14 days
From the text: Wistar rats (200-250g), fed a 0.6% Ca and 1.2% P diet, were 5/6 nephrectomized (5/6 Nx).

5/6 Nx rats [5] = assay: Ca and P content of thoracic aorta in 5/6 Nx rats given paricalcitol and/or Compound B (Example 3); format: in vivo, rat; details: 14 days
From the text: Wistar rats (200-250g), fed a 0.6% Ca and 1.2% P diet, were 5/6 nephrectomized (5/6 Nx) or sham-operated (sham).

5/6 Nx rats [6] = assay: Serum PTH, ionized Ca, P and creatinine in 5/6 Nx rats given paricalcitol and/or Compound B (Example 3); details: 14 days
[7] = Compound A 1.5 mg/kg per day sc, calcitriol 80 ng/kg ip every other day, or both, mean±SE
[8] = Compound A 3 mg/kg per day sc, mean±SE
[9] = concurrent treatment with Compound A 1.5 mg/kg and calcitriol 80 ng/kg
[10] = Group C: normal diet from day 14 + Compound A 3 mg/kg daily p.o. while still receiving calcitriol, vs group D, day 28
[11] = Group B: high phosphorus diet + calcitriol 80 ng/kg every other day i.p. 28 days, vs Group A (vehicle)
[12] = calcitriol 80 ng/kg every 48 hr ip
[13] = 5/6 Nx rats, compared to vehicle treated 5/6 Nx animals (Compound B also vs sham)
[14] = thoracic aorta, 5/6Nx rats, paricalcitol 240 ng/kg every 48 hr ip, Compound B 1.5 mg/kg every 48 hr sc
[15] = 5/6 Nx rats, compared to 5/6 Nx+vehicle
[16] = serum, 5/6Nx rats, paricalcitol 240 ng/kg every 48 hr ip, Compound B 1.5 mg/kg every 48 hr sc

Calcitriol mediated increase in serum creatinine levels (5/6 Nx rats [1]; Compound A 1.5 mg/kg per day sc included with calcitriol 80 ng/kg): decreased
SMILES: COc1cccc([C@@H](C)NCCCc2ccccc2Cl)c1.Cl [Compound A, N-(3-[2-chlorophenyl]-propyl)-R-α-methyl-3-methoxybenzylamine HCl]
Serum PTH concentration (5/6 Nx rats [1]; Compound A 1.5 mg/kg per day sc alone or with calcitriol 80 ng/kg, mean±SE): 73.5 ± 12.8 pg/mL
Serum ionized calcium levels (5/6 Nx rats [1]; [7]): 1.20 ± 0.02 mmol/L
Serum phosphorus levels (5/6 Nx rats [1]; [7]): 6.6 ± 0.3 mg/dL
Serum ionized calcium levels (5/6 Nx rats [1]; [8]): 1.22 ± 0.02 mmol/L
Serum phosphorus levels (5/6 Nx rats [1]; [8]): 6.9 ± 0.4 mg/dL
Raised phosphorus content in the aortic tissue, in words (5/6 Nx rats [2]; Compound A alone 1.5 or 3 mg/kg): did not
Development of aortic calcification (von Kossa staining) (5/6 Nx rats [2]; addition of Compound A 1.5 mg/kg to the calcitriol-treatment regimen): prevented the development of aortic calcification
Calcitriol-induced increase in aortic calcium (5/6 Nx rats [2]; [9]): significantly (P=0.002) attenuated
Calcitriol-induced increase in aortic phosphorus (5/6 Nx rats [2]; [9]): significantly (P=0.013) attenuated
Mineral deposits in the aorta (von Kossa staining) (5/6 Nx rats [2]): not observed
Aortic calcium content (5/6 Nx rats [3]; [10]): lower
Aortic phosphorus content (5/6 Nx rats [3]; [10]): significant (p<0.05) reduction

Serum creatinine levels (5/6 Nx rats [1]; calcitriol 80 ng/kg ip every other day, alone or with Compound A 1.5 mg/kg per day sc, mean±SE): 1.05 ± 0.07 mg/dL
Mineralization in heart (Von Kossa staining) (5/6 Nx rats [4]; [12]): increased mineralization
Mineralization in kidney (Von Kossa staining) (5/6 Nx rats [4]; [12]): increased mineralization
Mineralization in lung (Von Kossa staining) (5/6 Nx rats [4]; [12]): increased mineralization
SMILES: C=C1/C(=C\C=C2/CCC[C@]3(C)[C@@H]([C@H](C)CCCC(C)(C)O)CC[C@@H]23)C[C@@H](O)C[C@@H]1O [calcitriol, reference compound]
Serum ionized calcium levels (5/6 Nx rats [1]; [7]): 1.28 ± 0.02 mmol/L
Serum phosphorus levels (5/6 Nx rats [1]; [7]): 10.2 ± 0.9 mg/dL
Phosphorus content in the aortic tissue (5/6 Nx rats [2]; calcitriol 80 ng/kg ip every other day): 2.1±1 mg/g tissue
Aortic calcium content (5/6 Nx rats [2]; calcitriol 80 ng/kg ip every other day, mean±SE): 4.2±1.1 mg/g tissue
Mineral deposits in the aorta (von Kossa staining) (5/6 Nx rats [2]): marked von Kossa staining
Aortic calcium content (5/6 Nx rats [3]; [11]): significant (p<0.05) increases
Aortic phosphorus content (5/6 Nx rats [3]; [11]): significant (p<0.05) increases

Mineralization in kidney (Von Kossa staining) (5/6 Nx rats [4]; paricalcitol 240 ng/kg every 48 hr ip): increased mineralization
Creatinine, change in words (5/6 Nx rats [6]; [15]): no changes
Creatinine (5/6 Nx rats [6]; 5/6Nx rats, paricalcitol 240 ng/kg every 48 hr ip, Compound B 1.5 mg/kg every 48 hr sc): 2.32 ± 0.43 mg/dL
SMILES: C[C@H](/C=C/[C@H](C)C(C)(C)O)[C@H]1CC[C@H]2/C(=C/C=C3C[C@@H](O)C[C@H](O)C3)CCC[C@]12C [Paricalcitol, paricalcitol, reference compound]
Aortic Ca content, change in words (5/6 Nx rats [5]; [13]): significantly increased
Aortic P content, change in words (5/6 Nx rats [5]; [13]): significantly increased
Aortic Ca (5/6 Nx rats [5]; [14]): 9.5 ± 2.2 mg/g
Aortic P (5/6 Nx rats [5]; [14]): 6.2 ± 2.4 mg/g
Blood ionized calcium, change in words (5/6 Nx rats [6]; [15]): no changes
Serum P levels, change in words (5/6 Nx rats [6]; [15]): no changes
Serum PTH levels, change in words (5/6 Nx rats [6]; [15]): significantly (p<0.05) decreased
P (5/6 Nx rats [6]; [16]): 14.7 ± 2.1 mg/dL
PTH (5/6 Nx rats [6]; [16]): 250 ± 61 pg/mL
